Like-named read-outs stand apart in the source and are kept apart here.
How the values were obtained:
P. aeruginosa ATCC27853 = assay: microbe, parasite or virus in culture; design: MICa: MIC of the antibiotic / MICac: MIC of the antibiotic in the combination: unit not given beside the values; settings: strain ATCC27853
Outline: (§1)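 After 18 h at 37 °C, the lowest concentration showing no visible growth was read as the MIC. Drugs were serially diluted two-fold in MHB and combined with an equal volume of inoculum (~1 × 10^6 CFU/mL), following CLSI broth microdilution; run in triplicate.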

P. aeruginosa PA14 = assay: microbe, parasite or virus in culture; design: MICa: MIC of the antibiotic / MICac: MIC of the antibiotic in the combination: unit not given beside the values; settings: strain PA14
Outline: as §1

P. aeruginosa PAK = assay: microbe, parasite or virus in culture; design: MICa: MIC of the antibiotic / MICac: MIC of the antibiotic in the combination: unit not given beside the values; settings: strain PAK
Outline: as §1

P. aeruginosa NR-31040 = assay: microbe, parasite or virus in culture; design: MICa: MIC of the antibiotic / MICac: MIC of the antibiotic in the combination: unit not given beside the values; settings: strain NR-31040
Outline: as §1

P. aeruginosa NR-31041 = assay: microbe, parasite or virus in culture; design: MICa: MIC of the antibiotic / MICac: MIC of the antibiotic in the combination: unit not given beside the values; settings: strain NR-31041
Outline: as §1

P. aeruginosa PAO1 = assay: microbe, parasite or virus in culture; settings: PAO1
Outline: as §1

P. aeruginosa AUMC-Pa-6 = assay: microbe, parasite or virus in culture; settings: strain AUMC-Pa-6
Outline: as §1

P. aeruginosa AUMC-Pa-4 = assay: microbe, parasite or virus in culture; settings: strain AUMC-Pa-4
Outline: as §1

P. aeruginosa AUMC-Pa-5 = assay: microbe, parasite or virus in culture
Outline: as §1

P. aeruginosa AUMC-Pa-3 = assay: microbe, parasite or virus in culture
Outline: as §1

P. aeruginosa HM-214 = settings: strain HM-214; antibiotic + D-11 (MICb/MICbc 128/4)
Outline: as §1

P. aeruginosa AUMC-Pa-2 = settings: strain AUMC-Pa-2; antibiotic + D-11 (MICb/MICbc 64/4)
Outline: as §1

P. aeruginosa AUMC-Pa-1 = settings: strain AUMC-Pa-1; antibiotic + D-11 (MICb/MICbc 128/4)
Outline: as §1

[1] = test system: clinical P. aeruginosa isolates; assay: microbe, parasite or virus in culture; settings: Pseudomonas aeruginosa, 18 h, antibiotic alone
Outline: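 MIC is the lowest drug concentration showing no visible growth after 18 h at 37 °C. Two-fold dilutions in MHB were combined with an equal volume of bacterial suspension (about 1 × 10^6 CFU/mL), following CLSI broth microdilution, in triplicate.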

[2] = antibiotic alone, unit not given
[3] = with D-11 at MICbc 4, unit not given
[4] = antibiotic + D-11 (MICb/MICbc 128/4)
[5] = antibiotic + D-11 (MICb/MICbc 64/4)

For `C[C@@H](O)[C@H]1C(=O)N2C(C(=O)O)=C(S[C@@H]3CN[C@H](C(=O)N(C)C)C3)[C@H](C)[C@H]12` [Meropenem], the FICI (P. aeruginosa ATCC27853; antibiotic + D-11 (MICb/MICbc 32/4)) was 1.125, the “MICa: MIC of the antibiotic” value (P. aeruginosa ATCC27853; [2]) was 1/1 and the “MICac: MIC of the antibiotic in the combination” value (shortened to “MICac: MIC of the antibiotic”) (P. aeruginosa ATCC27853; [3]) was 1/1. The FICI (P. aeruginosa PA14; [4]) was 1.031, the “MICa: MIC of the antibiotic” value (P. aeruginosa PA14; [2]) was 2/2 and the “MICac: MIC of the antibiotic” value (P. aeruginosa PA14; [3]) was 2/2. The FICI (P. aeruginosa PAK; [5]) was 1.063, the “MICa: MIC of the antibiotic” value (P. aeruginosa PAK; [2]) was 1/1 and the “MICac: MIC of the antibiotic” value (P. aeruginosa PAK; [3]) was 1/1. For the same compound, the FICI (P. aeruginosa NR-31040; [4]) was 0.531, the “MICa: MIC of the antibiotic” value (P. aeruginosa NR-31040; [2]) was 2 and the “MICac: MIC of the antibiotic” value (P. aeruginosa NR-31040; [3]) was 1. The FICI (P. aeruginosa NR-31041; [5]) was 0.563, the “MICa: MIC of the antibiotic” value (P. aeruginosa NR-31041; [2]) was 4 and the “MICac: MIC of the antibiotic” value (P. aeruginosa NR-31041; [3]) was 2. The MIC (P. aeruginosa PAO1; Pseudomonas aeruginosa, PAO1, 18 h, read-out: MICa: the MIC of antibiotics, S3 Table, antibiotic alone) was 2 µM, the FICI (P. aeruginosa PAO1; S3 Table, antibiotic + 4 μM D-11) was 0.375 and the “MICac: the MIC for the antibiotic in the combination” value (P. aeruginosa PAO1; S3 Table, with 2 μM D-11) was 1 µM. For the same compound, the “MICac: the MIC for the antibiotic in the combination” value (P. aeruginosa PAO1; S3 Table, with 4 μM D-11) was 0.5 µM, the FICI (P. aeruginosa AUMC-Pa-6; [5]) was 2.063 and the “MICa: MIC of the antibiotic” value (P. aeruginosa AUMC-Pa-6; [2]) was 2. The “MICac: MIC of the antibiotic” value (P. aeruginosa AUMC-Pa-6; [3]) was 4, the FICI (P. aeruginosa AUMC-Pa-4; [4]) was 1.031 and the “MICa: MIC of the antibiotic” value (P. aeruginosa AUMC-Pa-4; [2]) was 2/2. The “MICac: MIC of the antibiotic” value (P. aeruginosa AUMC-Pa-4; [3]) was 2/2, the MIC (P. aeruginosa AUMC-Pa-5; Pseudomonas aeruginosa, AUMCPA5, 18 h, read-out: MICa: MIC of the antibiotic) was 0.25 µM and the FICI (P. aeruginosa AUMC-Pa-5; strain AUMC-Pa-5, antibiotic + D-11 (MICb/MICbc 64/4)) was 2.063. The “MICac: MIC of the antibiotic” value (P. aeruginosa AUMC-Pa-5; strain AUMC-Pa-5, with D-11 at MICbc 4, unit not given) was 0.5, the MIC (P. aeruginosa AUMC-Pa-3; Pseudomonas aeruginosa, AUMCPA3, 18 h, read-out: MICa: MIC of the antibiotic) was 0.25 µM and the FICI (P. aeruginosa AUMC-Pa-3; strain AUMC-Pa-3, antibiotic + D-11 (MICb/MICbc 128/4)) was 1.031. The “MICac: MIC of the antibiotic” value (P. aeruginosa AUMC-Pa-3; strain AUMC-Pa-3, with D-11 at MICbc 4, unit not given) was 0.25/0.25, the FICI (P. aeruginosa HM-214) was 1.031 and the FICI (P. aeruginosa AUMC-Pa-2) was 2.063. The FICI (P. aeruginosa AUMC-Pa-1) was 1.031, the MIC ([1]; read-out: Antibiotic sensibility (MIC) of clinical P. aeruginosa isolate AUMC-Pa-1, strain AUMC-Pa-1) was 1 µM and the MIC ([1]; read-out: Antibiotic sensibility (MIC) of clinical P. aeruginosa isolate AUMC-Pa-2, strain AUMC-Pa-2) was 1 µM. For the same compound, the MIC ([1]; read-out: Antibiotic sensibility (MIC) of clinical P. aeruginosa isolate AUMC-Pa-3, strain AUMC-Pa-3) was 0.25 µM, the MIC ([1]; read-out: Antibiotic sensibility (MIC) of clinical P. aeruginosa isolate AUMC-Pa-4, strain AUMC-Pa-4) was 2 µM and the MIC ([1]; read-out: Antibiotic sensibility (MIC) of clinical P. aeruginosa isolate AUMC-Pa-5, strain AUMC-Pa-5) was 0.25 µM. It also gave an MIC ([1]; read-out: Antibiotic sensibility (MIC) of clinical P. aeruginosa isolate AUMC-Pa-6, strain AUMC-Pa-6) of 2 µM, an MIC ([1]; read-out: Antibiotic sensibility (MIC) of clinical P. aeruginosa isolate HM-214, strain HM-214) of 0.25 µM and an MIC ([1]; read-out: Antibiotic sensibility (MIC) of clinical P. aeruginosa isolate NR-31040, strain NR-31040) of 2 µM. It also gave an MIC ([1]; read-out: Antibiotic sensibility (MIC) of clinical P. aeruginosa isolate NR-31041, strain NR-31041) of 4 µM.

— PMC8445441, “Elucidating the mechanism by which synthetic helper peptides sensitize Pseudomonas aeruginosa to multiple antibiotics” (PLoS Pathogens, 2021)
